Experimental findings from patent publication US10059694B2, “2-aminopyrimidine compound and pharmaceutical composition and use thereof” (Shanghai Institute of Materia Medica, Chinese Academy of …, priority 2014, dated 2018) are described below.

Molecules are shown by their SMILES. Where only a bound is given, the exact number is not on record here.

Assay [1] has as its system human epidermal carcinoma A431 cell line. The experiment in a line: SRB proliferation assay, A431 cells. It is filed as cell-based. Particulars: A-431, SRB, 72 h, read-out: IC50 A431. Here is the method: (§1) Cell lines: human epidermal carcinoma A431 cell line and human non-small cell lung cancer NCI-H1975 cell line was purchased from the American Standard Biology Collection Center (ATCC).
(§2) Methods: sulforhodamine B (SRB) method, which was as follows: certain number of different tumor cells in logarithmic growth phase were inoculated on 96-well culture plates. After cultured for 24 h to cell adherence, different concentrations of the test compounds of the invention were added. Each concentration was provided with three wells, and a corresponding concentration of DMSO solvent control and a cell-free zeroing well were set. After the cells were treated with the medicine for 72 h, the culture medium was discarded and 100 μL of 10% pre-cooled trichloroacetic acid solution was added to fix the cells. After placed for 1 h at 4° C., it was washed for 5 times with distilled water and dried naturally. Then 100 μL SRB (4 mg/mL) (Sigma) solution was added and stained for 15 min at room temperature. The staining solution was discarded and washed for 5 times with 1% glacial acetic acid and dried. Finally, 150 μL of 10 mM Tris solution (pH 10.5) was added and the OD value was measured at 515 nm with adjustable wavelength microplate enzyme-labeled instrument (VERSAmax™, Molecular Device Corporation, Sunnyvale, Calif., USA).
For orientation: In SRB staining, fixed cells bind dye roughly in proportion to their protein.

The target in assay [2] is T1, EGFR^T790M/L858R (Homo sapiens, UniProt P00533, L858R/T790M).
T1 construct: purchased Millipore
The experiment in a line: kinase inhibitory activity test (ELISA), EGFR^T790M/L858R. Particulars: for IC50: ELISA, ATP 5 μM, 1 hour at 37° C.; for kinase inhibitory activity (in words): summary of Table 1. The format is biochemical. Here is the method:
(§3) The enzyme substrate poly (glutamic acid, tyrosine)4:1 (Sigma) was diluted with potassium-free PBS (10 mM sodium phosphate buffer, 150 mM NaCl, pH 7.2-7.4) to 20 μg/mL, plate coated with 125 μL/well, reacted for 12-16 hours at 37° C. After the liquid in the wells was discarded, the plates were washed three times with 200 μL/well of T-PBS (PBS containing 0.1% Tween-20), and each time for 5 minutes, and then dried for 1-2 hours in an oven at 37° C. 50 μL of ATP solution diluted with reaction buffer (50 mM HEPES pH 7.4, 50 mM MgCl2, 5 mM MnCl2, 0.2 mM Na3VO4, 1 mM DTT) was added into each well and the final concentration was 5 μM. The compounds were diluted with 1% DMSO to suitable concentrations and were added at 10 μL/well. […] The above reaction system was reacted for 1 hour at 37° C. shaking table (100 rpm). Control wells with no enzyme and control wells with DMSO solvent were set in each experiment. After the reaction was completed, the plates were washed three times with T-PBS. The anti-phosphotyrosine primary antibody PY99 (Santa Cruz) was added at 100 μL/well and the antibody was diluted with T-PBS containing BSA 5 mg/mL by 1:1000. The mixture was reacted for 0.5 h at 37° C. shaking table, the plates were washed three times with T-PBS. The secondary antibody which was horseradish peroxidase-labeled goat anti-mouse IgG was added at 100 μL/well (the antibody was diluted with T-PBS containing BSA 5 mg/mL by 1:2000). The mixture was reacted for 0.5 h at 37° C. shaking table, the plates were washed three times with T-PBS. 2 l/mL of OPD coloring solution was added at 100 μL/well (diluted with 0.1 M citric acid-sodium citrate buffer (pH=5.4) containing 0.03% H2O2) and dark reacted for 1 to 10 minutes at 25° C. 2 M H2SO4 was added at 50 μL/well to terminate the reaction. Reading was carried out with an adjustable wavelength microplate enzyme-labeled instrument SPECTRA MAX 190 at 490 nm wavelength.
(§4) The IC50 value was calculated by the four-parameter fitting of the suppression curve.

The target of assay [3] is T2, EGFR^wt (Homo sapiens, UniProt P00533).
T2 construct: purchased Millipore
Kind of assay: kinase inhibitory activity test (ELISA), EGFR^WT. It is filed as biochemical. Conditions: ATP 5 μM, 1 hour at 37° C. How it is done: as §3, §4
On the technique in general: In an ELISA, binding on a coated surface is turned into a signal by an enzyme label.

The target in assay [4] is T3, IGF-1R (Homo sapiens, UniProt P08069).
T3 construct: purchased Millipore
The experiment in a line: kinase inhibitory activity test (ELISA), IGF-1R. It is filed as biochemical. Conditions: ATP 5 μM, 1 hour at 37° C. Here is the method: The enzyme substrate poly (glutamic acid, tyrosine)4:1 (Sigma) was diluted with potassium-free PBS (10 mM sodium phosphate buffer, 150 mM NaCl, pH 7.2-7.4) to 20 μg/mL, plate coated with 125 μL/well, reacted for 12-16 hours at 37° C. After the liquid in the wells was discarded, the plates were washed three times with 200 μL/well of T-PBS (PBS containing 0.1% Tween-20), and each time for 5 minutes, and then dried for 1-2 hours in an oven at 37° C. 50 μL of ATP solution diluted with reaction buffer (50 mM HEPES pH 7.4, 50 mM MgCl2, 5 mM MnCl2, 0.2 mM Na3VO4, 1 mM DTT) was added into each well and the final concentration was 5 μM. The compounds were diluted with 1% DMSO to suitable concentrations and were added at 10 μL/well. Then different types of tyrosine kinase proteins (including EGFR^wt, EGFR^T790M/L858R and IGF-1R, purchased from Millipore) diluted with 40 μL of reaction buffer were added. The above reaction system was reacted for 1 hour at 37° C. shaking table (100 rpm). Control wells with no enzyme and control wells with DMSO solvent were set in each experiment. After the reaction was completed, the plates were washed three times with T-PBS. The anti-phosphotyrosine primary antibody PY99 (Santa Cruz) was added at 100 μL/well and the antibody was diluted with T-PBS containing BSA 5 mg/mL by 1:1000. The mixture was reacted for 0.5 h at 37° C. shaking table, the plates were washed three times with T-PBS. The secondary antibody which was horseradish peroxidase-labeled goat anti-mouse IgG was added at 100 μL/well (the antibody was diluted with T-PBS containing BSA 5 mg/mL by 1:2000). The mixture was reacted for 0.5 h at 37° C. shaking table, the plates were washed three times with T-PBS. 2 l/mL of OPD coloring solution was added at 100 μL/well (diluted with 0.1 M citric acid-sodium citrate buffer (pH=5.4) containing 0.03% H2O2) and dark reacted for 1 to 10 minutes at 25° C. 2 M H2SO4 was added at 50 μL/well to terminate the reaction. Reading was carried out with an adjustable wavelength microplate enzyme-labeled instrument SPECTRA MAX 190 at 490 nm wavelength.
as §4

Assay [5] concerns human non-small cell lung cancer NCI-H1975 cell line. Kind of assay: SRB proliferation assay, NCI-H1975 cells. It is filed as cell-based. Particulars: NCI-H1975, SRB, 72 h, read-out: IC50 NCI-H1975. Here is the method: as §1
as §2, with “USA). […] Based on the inhibitory effect of the 2-aminopyrimidine compounds on the growth of these cells, the half maximal inhibitory concentration (IC50) values were calculated, as shown in Table 2.” for “USA).”

T1 sequence (P00533 25-1210 T790M/L858R): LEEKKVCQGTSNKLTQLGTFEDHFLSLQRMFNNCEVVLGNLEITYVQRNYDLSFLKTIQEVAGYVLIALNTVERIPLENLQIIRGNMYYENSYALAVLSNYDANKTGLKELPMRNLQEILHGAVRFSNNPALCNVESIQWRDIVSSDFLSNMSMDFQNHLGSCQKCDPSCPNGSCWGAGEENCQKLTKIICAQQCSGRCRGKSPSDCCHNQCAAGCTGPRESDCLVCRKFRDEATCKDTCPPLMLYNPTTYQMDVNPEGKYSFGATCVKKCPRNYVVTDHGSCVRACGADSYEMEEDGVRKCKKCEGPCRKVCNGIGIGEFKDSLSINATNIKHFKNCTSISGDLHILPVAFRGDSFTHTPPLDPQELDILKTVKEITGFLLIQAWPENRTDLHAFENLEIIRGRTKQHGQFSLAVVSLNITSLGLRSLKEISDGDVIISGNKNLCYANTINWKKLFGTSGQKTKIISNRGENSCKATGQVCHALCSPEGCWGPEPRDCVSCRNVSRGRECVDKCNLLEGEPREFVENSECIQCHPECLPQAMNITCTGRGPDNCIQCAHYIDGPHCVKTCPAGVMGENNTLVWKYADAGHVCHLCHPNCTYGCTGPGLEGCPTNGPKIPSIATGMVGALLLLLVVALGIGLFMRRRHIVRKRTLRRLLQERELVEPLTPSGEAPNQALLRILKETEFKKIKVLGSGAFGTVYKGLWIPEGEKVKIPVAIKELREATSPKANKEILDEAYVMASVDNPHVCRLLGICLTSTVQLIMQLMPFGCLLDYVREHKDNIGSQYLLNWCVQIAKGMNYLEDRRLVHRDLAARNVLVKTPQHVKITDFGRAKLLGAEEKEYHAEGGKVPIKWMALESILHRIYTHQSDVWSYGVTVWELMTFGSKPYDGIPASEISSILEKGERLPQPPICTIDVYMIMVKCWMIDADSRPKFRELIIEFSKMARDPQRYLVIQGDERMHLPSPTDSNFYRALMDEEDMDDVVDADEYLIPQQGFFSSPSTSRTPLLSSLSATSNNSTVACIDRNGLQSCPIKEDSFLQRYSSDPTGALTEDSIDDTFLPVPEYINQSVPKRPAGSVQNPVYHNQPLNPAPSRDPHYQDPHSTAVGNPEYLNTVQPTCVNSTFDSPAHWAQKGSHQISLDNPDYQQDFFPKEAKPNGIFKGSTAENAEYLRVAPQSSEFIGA
T2 sequence (P00533 25-1210): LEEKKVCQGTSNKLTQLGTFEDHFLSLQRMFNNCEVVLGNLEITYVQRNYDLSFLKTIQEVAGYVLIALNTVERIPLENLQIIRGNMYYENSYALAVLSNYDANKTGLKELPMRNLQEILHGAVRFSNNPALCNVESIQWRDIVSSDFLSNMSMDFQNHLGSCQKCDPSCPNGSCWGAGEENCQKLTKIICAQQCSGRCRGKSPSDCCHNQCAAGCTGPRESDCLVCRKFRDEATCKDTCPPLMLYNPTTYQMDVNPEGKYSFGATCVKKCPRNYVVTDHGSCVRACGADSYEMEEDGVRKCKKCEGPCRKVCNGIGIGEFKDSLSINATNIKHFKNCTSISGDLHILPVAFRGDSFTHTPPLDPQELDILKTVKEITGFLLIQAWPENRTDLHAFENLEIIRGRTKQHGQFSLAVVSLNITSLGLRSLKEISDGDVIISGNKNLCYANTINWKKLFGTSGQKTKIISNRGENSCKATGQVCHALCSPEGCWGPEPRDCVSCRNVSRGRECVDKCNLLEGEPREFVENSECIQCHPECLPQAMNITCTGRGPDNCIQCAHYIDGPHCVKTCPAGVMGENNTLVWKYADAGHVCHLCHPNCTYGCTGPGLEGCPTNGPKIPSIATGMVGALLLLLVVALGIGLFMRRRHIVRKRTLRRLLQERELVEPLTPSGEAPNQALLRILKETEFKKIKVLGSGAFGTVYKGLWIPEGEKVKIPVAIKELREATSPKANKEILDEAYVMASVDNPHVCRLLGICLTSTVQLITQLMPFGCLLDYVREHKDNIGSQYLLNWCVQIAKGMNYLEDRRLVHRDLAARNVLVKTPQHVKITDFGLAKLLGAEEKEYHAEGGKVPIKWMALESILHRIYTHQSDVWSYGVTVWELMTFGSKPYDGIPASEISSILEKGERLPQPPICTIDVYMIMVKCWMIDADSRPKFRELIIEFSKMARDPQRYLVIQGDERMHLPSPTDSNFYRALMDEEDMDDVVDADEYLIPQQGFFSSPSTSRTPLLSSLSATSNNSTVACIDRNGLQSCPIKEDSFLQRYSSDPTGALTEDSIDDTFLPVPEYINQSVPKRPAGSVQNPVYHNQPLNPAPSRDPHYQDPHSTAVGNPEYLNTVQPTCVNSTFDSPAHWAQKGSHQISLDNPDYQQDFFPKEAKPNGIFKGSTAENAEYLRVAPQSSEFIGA
T3 sequence (P08069 31-1367): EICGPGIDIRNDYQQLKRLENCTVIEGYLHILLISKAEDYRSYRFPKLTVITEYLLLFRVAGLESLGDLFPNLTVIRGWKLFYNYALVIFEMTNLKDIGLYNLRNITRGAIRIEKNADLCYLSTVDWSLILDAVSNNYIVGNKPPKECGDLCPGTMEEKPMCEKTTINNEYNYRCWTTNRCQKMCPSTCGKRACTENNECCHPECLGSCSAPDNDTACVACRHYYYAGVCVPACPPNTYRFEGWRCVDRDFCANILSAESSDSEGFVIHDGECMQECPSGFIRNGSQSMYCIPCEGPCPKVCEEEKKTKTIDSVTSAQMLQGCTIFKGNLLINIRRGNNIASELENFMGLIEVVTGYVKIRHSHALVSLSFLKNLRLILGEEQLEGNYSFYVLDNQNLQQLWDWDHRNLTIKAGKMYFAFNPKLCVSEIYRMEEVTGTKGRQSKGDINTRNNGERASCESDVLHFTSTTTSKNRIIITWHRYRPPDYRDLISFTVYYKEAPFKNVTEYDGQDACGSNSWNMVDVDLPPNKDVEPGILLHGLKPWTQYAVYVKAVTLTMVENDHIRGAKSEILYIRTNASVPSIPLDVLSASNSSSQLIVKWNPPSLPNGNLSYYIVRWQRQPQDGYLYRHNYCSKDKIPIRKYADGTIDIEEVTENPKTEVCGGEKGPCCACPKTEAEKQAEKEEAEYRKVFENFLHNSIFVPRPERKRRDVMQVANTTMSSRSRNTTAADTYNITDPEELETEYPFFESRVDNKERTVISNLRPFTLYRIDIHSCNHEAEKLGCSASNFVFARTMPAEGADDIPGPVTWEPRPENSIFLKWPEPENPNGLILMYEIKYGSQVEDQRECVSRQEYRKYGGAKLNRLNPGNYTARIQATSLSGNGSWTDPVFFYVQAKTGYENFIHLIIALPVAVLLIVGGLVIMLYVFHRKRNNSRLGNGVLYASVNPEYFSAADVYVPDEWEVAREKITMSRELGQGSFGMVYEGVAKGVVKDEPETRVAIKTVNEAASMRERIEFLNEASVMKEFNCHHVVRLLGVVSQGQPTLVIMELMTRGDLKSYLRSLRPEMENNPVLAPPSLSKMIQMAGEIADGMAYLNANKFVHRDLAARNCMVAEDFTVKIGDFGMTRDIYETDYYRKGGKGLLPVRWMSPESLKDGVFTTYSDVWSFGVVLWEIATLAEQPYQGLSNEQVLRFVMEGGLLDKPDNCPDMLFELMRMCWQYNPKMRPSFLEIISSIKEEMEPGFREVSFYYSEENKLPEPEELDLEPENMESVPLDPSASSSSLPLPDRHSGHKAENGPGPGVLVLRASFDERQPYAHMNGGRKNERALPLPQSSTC

As a reminder, the IC50 is the midpoint of a concentration-inhibition curve. For `C=CC(=O)Nc1cc(CN2CCCN(C)CC2)cc(Nc2ncc(Cl)c(Nc3ccc4ccccc4c3)n2)c1` [CCB120105, N-((3-((5-chloro-4-((naphthalen-2-yl)amino))pyrimidin-2-yl)amino)-5-((4-methylhomopiperazin-1-yl)methyl)phenyl)acrylamide], the IC50 in assay [1] stood at 0.576 µM; in assay [2], 0.0012 µM; in assay [3], 0.137 µM; in assay [4] it was 0.0773 µM; in assay [5], 0.151 µM.

`C=CC(=O)Nc1cc(CN2CCOCC2)cc(Nc2ncc(Cl)c(Nc3ccc4ccccc4c3)n2)c1` [CCB120106]: the IC50 in assay [1] was 2 µM; in assay [2], 0.0041 µM; in assay [3] it was > 1 µM; in assay [4], 0.138 µM; in assay [5], 0.311 µM.

With `C=CC(=O)Nc1cc(Nc2ncc(Cl)c(Nc3ccc4ccccc4c3)n2)c(OC)cc1N1CCN(C(C)=O)CC1` [CCB120111, N-((5-((5-chloro-4-((naphthalen-2-yl)amino))pyrimidin-2-yl)amino)-2-(4-acetylpiperazine)-4-methoxyphenyl)acrylamide], the IC50 is 1.1 µM in assay [1]; 0.0215 µM in assay [2]; > 0.1 µM in assay [3]; 0.0198 µM in assay [4]; 0.051 µM in assay [5].

`C=CC(=O)Nc1cc(Nc2ncc(Cl)c(Nc3ccc4ccccc4c3)n2)c(OC)cc1N1CCN(C)CC1` [CCB120115, N-((5-((5-chloro-4-((naphthalen-2-yl)amino))pyrimidin-2-yl)amino)-2-(4-methylpiperazine)-4-methoxyphenyl)acrylamide]: the half-maximal inhibitory concentration (IC50) in assay [1] worked out at 2.59 µM; in assay [2], 0.0016 µM; in assay [3], 0.0403 µM; in assay [4], 0.0285 µM; in assay [5], 0.016 µM. Besides, the “kinase inhibitory activity (in words)” value in assay [2] is “potent”.

As for `C=CC(=O)Nc1cc(Nc2ncc(Cl)c(Nc3ccc4ccccc4c3)n2)c(OC)cc1N1CCOCC1` [CCB120117, N-((5-((5-chloro-4-((naphthalen-2-yl)amino))pyrimidin-2-yl)amino)-2-morpholinyl-4-methoxyphenyl)acrylamide], the half-maximal inhibitory concentration (IC50) in assay [1] was > 10 µM; in assay [2] it was 0.0094 µM; in assay [3], > 0.1 µM; in assay [4], 0.0187 µM; in assay [5] it was 0.272 µM.

With `C=CC(=O)Nc1cc(Nc2ncc(Cl)c(Nc3ccc4ccccc4c3)n2)c(OC)cc1N1CCCN(C)CC1` [CCB120120, N-((5-((5-chloro-4-((naphthalen-2-yl)amino))pyrimidin-2-yl)amino)-2-(4-methylhomopiperazinyl)-4-methoxyphenyl)acrylamide], the half-inhibitory concentration (IC50) in assay [1] was 0.26 µM; in assay [2], 0.0006 µM; in assay [3] it was 0.0317 µM; in assay [4], 0.0183 µM; in assay [5], 0.001 to 0.016 µM. In addition, the “kinase inhibitory activity (in words)” value in assay [2] is on record as “potent”.

As for `C=CC(=O)Nc1cc(Nc2ncc(Cl)c(Nc3ccc4ccccc4c3)n2)c(OC)cc1N1CCC(N(C)C)CC1` [CCB120121, N-((5-((5 chloro-4-((naphthalen-2-yl)amino))pyrimidin-2-yl)amino)-2-(4-dimethylaminopiperidine)-4-methoxyphenyl)acrylamide], the IC50 is 0.324 µM in assay [1]; 0.0013 µM in assay [2]; > 0.1 µM in assay [3]; 0.0137 µM in assay [4]; 0.004 µM in assay [5].

As to `C=CC(=O)Nc1cc(Nc2ncc(Cl)c(Nc3ccc4ccccc4c3)n2)c(OC)cc1N1CCC(N(C)C)C1` (centres unmarked) [CCB120137, N-((5-((5-chloro-4-((naphthalen-2-yl)amino))pyrimidin-2-yl)amino)-2-(3-dimethylaminopyrrolidin-1-yl)-4-methoxyphenyl)acrylamide], the IC50 in assay [1] is 0.425 µM; in assay [2] it was 0.0003 µM; in assay [3], 0.0168 µM; in assay [4] it was 0.0564 µM; in assay [5] it was 0.167 µM. In assay [2], the “kinase inhibitory activity (in words)” value was “potent”.

For the molecule `C=CC(=O)Nc1cc(Nc2ncc(Cl)c(Nc3ccc4ccccc4c3)n2)c(OC)cc1N1CC(N(C)C)C1` [CCB120138, N-((5-((5-chloro-4-((naphthalen-2-yl)amino))pyrimidin-2-yl)amino)-2-(3-dimethylaminoazetidin-1-yl)-4-methoxyphenyl)acrylamide], the 50% inhibitory concentration (IC50) in assay [1] is 0.912 µM; in assay [2], 0.0006 µM; in assay [3], 0.0043 µM; in assay [4] it was 0.426 µM; in assay [5], 0.164 µM.

Take `COc1ccc(NC(=O)/C=C/CN(C)C)cc1Nc1ncc(Cl)c(Nc2ccc3ncccc3c2)n1` [CCB145213, (E)-N-((3-((5-chloro-4-((quinolin-6-yl)amino))pyrimidin-2-yl)amino)-4-methoxyphenyl)-4-(dimethylamino)-2-butenamide]: the IC50 in assay [1] came to 0.857 µM; in assay [2], 0.0435 µM; in assay [3] it was 0.615 µM; in assay [4], 0.0371 µM; in assay [5] it was 0.24 µM.
